Literature values in patent publication US20240165053A1, “Topical Medicament for Use in Treatment of Anorectal Inflammation” (priority 2022, published 2024).

System: swollen hemorrhoids

In the case of `OC[C@H]1O[C@@](CO)(O[C@H]2O[C@H](CO)[C@@H](O)[C@H](O)[C@H]2O)[C@@H](O)[C@@H]1O` [granulated sugar, Sucrose], the “time of application after which the difference is noticeable with the naked eye” value (topical application on prolapsed hemorrhoids) is given as 10 min and the “edema reduction of swollen hemorrhoids” value (topical application, medical studies) is given as “immediate edema reduction”.
